# Measurements from patent publication US10253002B2, “Compounds and methods of treating infections” (Neoculi Pty Ltd., priority 2013, dated 2019).
# Experiments:
# [1] = system: S. pneumoniae isolates; assay: Micro-broth dilution MIC, Example 5; type: cell-based, Streptococcus pneumoniae
# Method: For all in vitro assays, fresh pneumococcal isolates were grown overnight (O/N) on horse blood agar (HBA) plates (39 g/L Columbia blood agar base [Oxoid] 5% [v/v] defribinated horse blood [Oxoid] at 37° C. with 5% supplemented CO2). Mueller-Hinton blood agar with 5% defibrinated sheep blood (MHSBA Roseworthy Media and Blood Service) was used for disk diffusion analysis as directed by Clinical Laboratory Standards Institute (CLSI) standards. Pneumococci were routinely grown in broth consisting of 4% lysed horse blood (LHB) with Cation Adjusted Mueller Hinton Broth (CAHMB, [Difco]) at 37° C. with 5% supplemented CO2. […] Isolates were stored in HSB at −80° C.
# (§1) [Micro-broth dilutions and 96 well trays are prepared by the following method: 90 μL of 4% LHB:CAMHB is aliquotted into all wells using a multichannel pipette. 90 μL of working antimicrobial stocks were no serial diluted down the tray by a 1:2 dilution. Negative broth controls and dilution control were taken into account when planning the set up of a 96 well tray.] 10 μL of bacterial suspension was then added to the appropriate wells in the 96 well tray. Appropriate positive (no antimicrobial), negative (no antimicrobial or bacteria) and negative dilution (a serial dilution control of antimicrobial and broth) controls were included in each assay. […] The MBC was determined by a 99.95% inhibition of S. pneumoniae, taking into account the dilution factor. MICs and MBCs were determined in quadruplicate and the mode was taken as the representative value. The MIC50, MIC90 and MIC range and MBC50, MBC90 and MBC range were determined according to CLSI standards. The MIC50 and MIC90, or MBC50 and MBC90, are defined by the lowest concentrations which, when all the MICs and MBCs of the isolates are arranged from lowest to highest, inhibited the 50th and 90th percentile of the total amount of isolates, respectively.
# [2] = system: S. pneumoniae isolates; assay: MBC, Example 5; type: cell-based, Streptococcus pneumoniae
# Method: as §1
# [3] = system: S. pneumoniae strain D39; assay: MBC time kill studies (relative MBC at time points); type: cell-based, Streptococcus pneumoniae
# Text: MBC kill kinetics assays involved the preparation of three 96 well microtitre trays.
# [4] = Visual analysis of solubility in diluents and media, Example 5; type: physicochemical
# [5] = system: MRSA; assay: Broth microdilution MIC, Example 7 (NCL812 and analogues); type: cell-based, Staphylococcus aureus
# In short: (§2)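 MICs in μg/ml were read as growth inhibition by eye, checked at 600 nm absorbance against drug-free wells, following CLSI broth microdilution. Strains: two MRSA, two VRE; duplicates, repeated once more when results diverged beyond one dilution step.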
# [6] = system: VRE; assay: as above; type: cell-based, Enterococcus spp.
# In short: as §2
# [7] = system: Escherichia coli; assay: as above; type: cell-based; details: 24 hours; 1st and 2nd replicate rows
# [8] = system: Pseudomonas aeruginosa; assay: as above; type: cell-based; details: 24 hours; 1st and 2nd replicate rows
# [9] = Bioassay ranking of the analogues tested; details: M + R (MRSA and VRE combined)
# [10] = system: lipid synthesis in S. aureus ATCC 29213; assay: Macromolecular synthesis assay: lipid synthesis ([3H] glycerol); type: cell-based, Staphylococcus aureus
# Method: Cells were grown at 35° C. overnight on Trypticase Soy agar. A colony from the plate was used to inoculate 10 ml of Mueller Hinton broth II (MHBII), and the culture was grown to early exponential growth phase (OD600==0.2 to 0.3) while incubating in a shaker at 35° C. and 200 rpm.
# Bacterial cells were grown to early exponential growth phase in MHBII broth and added to 1.5 mL eppendorf tubes (in triplicate) containing various concentrations of test compound or control antibiotics as described above. Following a 5 min incubation at room temperature, [^3H] glycerol was added at 0.5 μCi per reaction.
# Reactions were allowed to proceed at room temperature for 15 min and then stopped through the addition of 375 μL chloroform/methanol (1:2) followed by vortexing for 20 seconds after each addition. Chloroform (125 μL) was then added to each reaction, vortexed, followed by the addition of 125 μL dH2O and vortexing. Reactions were centrifuged at 13,000 rpm for 10 min, and then 150 μL of the organic phase was transferred to a scintillation vial and allowed to dry in a fume hood for at least 1 hr. Samples were then counted via liquid scintillation counting.
# [11] = system: ATP release from S. aureus ATCC 29213; assay: ATP release assay (CellTiter-Glo); type: cell-based, Staphylococcus aureus; details: positive control; 8 fold the MIC (256 μg/mL); 30 min exposure
# Method: The CellTiter-Glo Luminescent Cell Viability Assay (Promega) was utilized to measure the leakage of ATP from bacteria. […] The negative control received 2% DMSO, which represented the final DMSO concentration in each assay. After a 30 min exposure to drug, cells were sedimented by centrifugation and the supernatant was analyzed for the presence of ATP. Results were expressed as ATP concentration released to the medium (μM).
# [12] = isolate WCH158, Table 22, CAMHB diluent for NCL062
compound,measurement,setting,value
C/C(=N\NC(=N)N/N=C(\C)c1ccc(Cl)cc1)c1ccc(Cl)cc1.Cl [NCL062],MIC,[1]; A66.1,8 µg/mL
same,MIC,[1]; D39,2 µg/mL
same,Relative MIC with media type for D39,"[1]; D39, 4% LHB:CAMHB",4 µg/mL
same,Relative MIC with media type for D39,"[1]; D39, 10% horse serum-supplemented broth",32 µg/mL
same,MIC,[1]; EF3030,16 µg/mL
same,MIC,[1]; L82016,8 µg/mL
same,MIC,[1]; P9,4 µg/mL
same,MIC,[1]; P21,4 µg/mL
same,"MIC of D39, stored pre-prepared micro-titer trays",[1]; Storage condition 4° C.,4 µg/mL
same,"MIC of D39, stored pre-prepared micro-titer trays",[1]; Storage condition −2° C.,4 µg/mL
same,MIC,[1]; TIGR4,8 µg/mL
same,MIC,[1]; WCH16,32 µg/mL
same,MIC,[1]; WCH43,2 µg/mL
same,MIC,[1]; WCH46,32 µg/mL
same,MIC,[1]; WCH57,4 µg/mL
same,MIC,[1]; WCH77,8 µg/mL
same,MIC,[1]; WCH86,4 µg/mL
same,MIC,[1]; WCH89,4 µg/mL
same,MIC,[1]; WCH92,8 µg/mL
same,MIC,[1]; WCH137,2 µg/mL
same,MIC,[1]; WCH158,16 µg/mL
same,MIC,[1]; WCH184,16 µg/mL
same,MIC,[1]; WCH211,2 µg/mL
same,MIC,[1]; WU2,16 µg/mL
same,MIC50,[1]; all S. pneumoniae isolates,8 µg/mL
same,MIC90,[1]; all S. pneumoniae isolates,32 µg/mL
same,MIC range,[1]; all S. pneumoniae isolates,2 to 32 µg/mL
same,MIC,"[1]; isolate A66.1, Table 22, CAMHB diluent for NCL062",Confluent
same,MIC,"[1]; isolate D39, Table 22, CAMHB diluent for NCL062",Confluent
same,MIC,"[1]; isolate P21, Table 22, CAMHB diluent for NCL062",Confluent
same,MIC,"[1]; isolate WCH57, Table 22, CAMHB diluent for NCL062",Confluent
same,MIC,[1]; [12],Confluent
same,MIC,"[1]; isolate WU-2, Table 22, CAMHB diluent for NCL062",Confluent
same,MBC,[2]; A66.1,32 µg/mL
same,MBC,[2]; D39,4 µg/mL
same,MBC,[2]; EF3030,16 µg/mL
same,MBC,[2]; L82016,32 µg/mL
same,MBC,[2]; P9,16 µg/mL
same,MBC,[2]; P21,4 µg/mL
same,MBC,[2]; TIGR4,8 µg/mL
same,MBC,[2]; WCH16,32 µg/mL
same,MBC,[2]; WCH43,4 µg/mL
same,MBC,[2]; WCH46,32 µg/mL
same,MBC,[2]; WCH57,8 µg/mL
same,MBC,[2]; WCH77,8 µg/mL
same,MBC,[2]; WCH86,8 µg/mL
same,MBC,[2]; WCH89,4 µg/mL
same,MBC,[2]; WCH92,8 µg/mL
same,MBC,[2]; WCH137,4 µg/mL
same,MBC,[2]; WCH158,16 µg/mL
same,MBC,[2]; WCH184,16 µg/mL
same,MBC,[2]; WCH211,4 µg/mL
same,MBC,[2]; WU2,64 µg/mL
same,MBC50,[2]; all S. pneumoniae isolates,16 µg/mL
same,MBC90,[2]; all S. pneumoniae isolates,32 µg/mL
same,MBC Range,[2]; all S. pneumoniae isolates,4 to 64 µg/mL
same,MBC,[2]; [12],64 µg/mL
same,constant bactericidal concentration,[3]; between 24 and 48 h,4 µg/mL
same,immediate MBC,[3]; within the first 10 min of administration,8 µg/mL
same,Visual analysis of solubility,[4]; Diluent CAMHB,Transparent
same,Visual analysis of solubility,[4]; Diluent DMSO,Precipitate
same,Visual analysis of solubility,[4]; Diluent PBS,Precipitate
same,Visual analysis of solubility,[4]; Media 4% LHB:CAMHB,Transparent
same,Visual analysis of solubility,[4]; Media 10% horse serum-supplemented broth,Transparent
same,activity against MRSA among analogues,"[5]; MIC testing, two MRSA strains",greatest activity
same,MRSA,"[5]; bioassay ranking, MRSA",3 µg/mL
same,"MIC (μg/ml) at 24 hours, MRSA 1","[5]; isolate MRSA 1, 24 hours, 1st and 2nd replicate rows",2 µg/mL
same,"MIC (μg/ml) at 24 hours, MRSA 2","[5]; isolate MRSA 2, 24 hours, 1st and 2nd replicate rows",4 µg/mL
same,activity against VRE among analogues,"[6]; MIC testing, two VRE strains",greatest activity
same,VRE,"[6]; bioassay ranking, VRE",1.5 µg/mL
same,"MIC (μg/ml) at 24 hours, VRE 1","[6]; isolate VRE 1, 24 hours, 1st and 2nd replicate rows",2 µg/mL
same,"MIC (μg/ml) at 24 hours, VRE 2","[6]; isolate VRE 2, 24 hours, 1st and 2nd replicate rows",1 µg/mL
same,"MIC (μg/ml) at 24 hours, E. coli",[7],>128 µg/mL
same,"MIC (μg/ml) at 24 hours, P. aeruginosa",[8],>128 µg/mL
same,M + R,[9],2.25 µg/mL
"C/C=C/C/C=C/CCC(=O)[C@H]1O[C@H]1C(N)=O [cerulenin, Cerulenin, reference compound]",inhibition of lipid synthesis,[10],72%
Polymyxin B [reference compound],maximal ATP release,[11],approximately 0.34 μM
